This note sets out measurements from PubChem BioAssay (NCI).

Assay in all cases: inhibition of tumour cell growth, NCI panel, 48 h
The test system of assay [1] is HL-60(TB) leukemia.
Assay [2] relates to MCF7 breast.
Assay [3] concerns OVCAR-8 ovarian.
Assay [4] relates to HOP-62 NSCLC.
Assay [5] deals with UO-31 renal.
Assay [6] concerns SW-620 colon.
Assay [7] concerns MDA-MB-231 breast.
The test system of assay [8] is A549 NSCLC.
The subject of assay [9] is UACC-62 melanoma.
Assay [10] relates to DU-145 prostate.

“And” between values parts separate entries of the source, which are not always exact repeats. Equal values may be shown once.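 In this assay, cells in 96-well plates receive the compound at five concentrations for 48 hours. Endpoints are linearly interpolated between the surrounding concentrations. GI50: concentration for 50% inhibition of growth. Definition used: TGI = concentration required for complete inhibition of growth.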 Some results are limits rather than exact numbers.

As to `CC(=O)NC1C(CO)O[C@@H]2OC(C)(C)O[C@H]12` (some centres undefined), the TGI in [1], in assay [2], in assay [3], in assay [4], in assay [5] and in [6] was greater than 100 µM in each case. Moreover, the TGI in [7], in assay [8] and in assay [9] was greater than 100 µM throughout.

`NC(N)=N/N=C/c1c(-c2ccc([N+](=O)[O-])cc2)nc2sccn12`: the TGI was 5.8 µM in assay [1]; 2.62 µM in [2]; 6.13 µM in assay [5]; 3.13 µM in [7]; 3.34 µM in assay [8]; 3.22 µM in assay [9]. Besides, in assay [10], the TGI is 3.21 µM.

Take `O=C(Nn1c(-c2ccccc2)nc2ccccc2c1=O)c1ccccn1`: the TGI in assay [1], in assay [3], in assay [4], in assay [5], in assay [6] and in assay [7] was greater than 100 µM throughout. Also, the TGI in assay [8], in [9] and in assay [10] was greater than 100 µM each time.

As for `O=C1c2[nH]cc(CN3CCNCC3)c2C(=O)c2c1c(O)c1ccccc1c2O`, the GI50 is 22 µM in [1]; 32.9 µM in [2]; 1.7 µM in assay [5]; 1.51 µM in assay [7]; 1.71 µM in assay [9]; 1.67 µM in assay [10]. In addition, the TGI in [1] is greater than 100 µM; in [2], greater than 100 µM; in [4], 1.14 µM; in assay [5] it was 5.96 µM; in [7], 3.18 µM; in assay [9] it was 3.28 µM. The molecule further had a TGI in assay [10] of 3.06 µM.

`COC(=O)C(/C(=N/NC(=O)c1ccncc1)C(=O)Nc1ccccc1OC)c1nc2ccc(Cl)cc2[nH]c1=O` (centres undefined): the TGI in [1], in assay [2], in assay [3], in assay [4], in assay [5] and in [6] was greater than 100 µM in each case. The TGI in assay [7], in [8] and in [9] was greater than 100 µM each time.

Consider `COC(=O)c1sc(=S)sc1SCc1ccccc1CSc1sc(=S)sc1C(=O)OC`, for which the TGI in assay [2], in assay [3], in assay [4], in [5], in assay [6] and in assay [7] was greater than 100 µM each time. For the same molecule, the TGI in assay [8], in assay [9] and in assay [10] was greater than 100 µM each time.

As for `COc1ccc(C2(c3ccc(OC)cc3)OC(=O)c3cccc4cccc2c34)cc1`, the TGI in [2], in [3], in assay [4], in [5], in assay [6] and in assay [7] was greater than 100 µM in each case. Besides, the TGI in assay [8], in [9] and in assay [10] was greater than 100 µM each time.

Consider `O=C(c1ccc2ccccc2c1)C1S(=O)(=O)OCCOS1(=O)=O`, for which the TGI in assay [1], in assay [2], in assay [3], in [4], in assay [5] and in assay [8] was greater than 100 µM each time. In [10], this molecule displayed a TGI greater than 100 µM.

Consider `COc1cc2cc(C(=O)N3CC(CCl)c4c3cc(N)c3ccccc43)[nH]c2cc1OCCN(C)C` (centres undefined), for which the TGI in assay [2] is 6.52 µM; in assay [3], 0.0571 µM; in [4] it was 0.00741 µM; in assay [5], less than 0.005 µM; in [7] it was 0.0173 µM; in [8], 6 µM. For the same molecule, the results for the TGI in assay [9] and in assay [10] were 0.00871 µM and 0.0246 µM, respectively.

For `Cc1cc2ccccc2c[n+]1CC(O)C[n+]1cc2ccccc2cc1C`, the TGI in assay [2], in assay [3], in [4], in [5], in assay [6] and in assay [7] was greater than 100 µM each time. Further, the TGI in assay [8], in assay [9] and in [10] was greater than 100 µM each time.

With `COc1cccc(NC(=O)CSc2nnc(-c3ccc(N=Cc4ccc(Cl)cc4)cc3)o2)c1`, the TGI in assay [1] is 87.8 µM; in [3] it was 58.4 µM; in assay [4], greater than 100 µM; in assay [5], 32.7 µM; in assay [6], 37.9 µM; in assay [8] it was 69.6 µM. In assay [9], this molecule registered a TGI of 35.1 µM.

With `CC1=CC(O)C(O)C2(C)C1CC1OC(=O)C(O)C3C(C)C(O)C4(O)OCC13C42` (centres undefined), the TGI in [1] was 189 µM; in assay [2], 464 µM; in [3], greater than 570 µM; in assay [4] it was 348 µM; in assay [5], 518 µM; in [6], 224 µM. Also, the TGI in assay [8] was 387 µM; in assay [9], 341 µM.

Turning to `C/C(O)=C(\C=N\C(N)=S)C(=O)Nc1ccccc1C`, the TGI in [2], in assay [3], in assay [4], in assay [5], in assay [6] and in [7] was greater than 100 µM each time. For the same molecule, the TGI in assay [8], in assay [9] and in assay [10] was greater than 100 µM in each case.

Turning to `O=S1(=O)NNC(=NCc2ccc(Cl)cc2)c2ccccc21`, the TGI in assay [1], in assay [3], in assay [5], in [6], in assay [8] and in assay [9] was greater than 100 µM each time.

Turning to `COC(=O)[C@H](C)N1C(=O)N[C@@H](C(C)C)C1=O`, the TGI in assay [2], in assay [3], in assay [4], in assay [5], in [6] and in assay [7] was greater than 100 µM each time. Moreover, the TGI in assay [8], in assay [9] and in [10] was greater than 100 µM in each case.

As for `COc1cc(C2C3=C(CCC3=O)Oc3cc4c(cc32)OCO4)cc(OC)c1OC` (centres undefined), the TGI was 0.596 µM in assay [1]; greater than 100 µM in assay [3]; 0.742 µM in assay [4]; greater than 100 µM in assay [5]; greater than 100 µM in assay [6]; greater than 100 µM in [8]. Besides, in assay [9], the TGI was greater than 100 µM.

Turning to `Cc1csc2c1C(=O)c1ccsc1C2=O`, the TGI in assay [1] was greater than 30.1 µM; in assay [2] it was 2.98 µM; in assay [3] it was 11.3 µM; in [5] it was 8.85 µM; in [6] it was 5.31 µM; in assay [7] it was 11 µM. The values for the TGI in assay [8], in assay [9] and in assay [10] were 3.55 µM, 3.07 µM and 3.29 µM, respectively.

Turning to `CCCCc1c2c(nc3c1CCc1cc4c(nc1-3)-c1nc3c(c(CCCC)c1CC4)CCC/C3=C\c1ccccc1)/C(=C/c1ccccc1)CCC2`, the TGI in assay [1], in [3], in assay [4], in assay [5], in [6] and in assay [8] was greater than 100 µM in each case. The TGI in assay [9] is greater than 100 µM.

Consider `Cc1cc(C)c(S(=O)(=O)N(CCCCN)OCCCN)c(C)c1`, for which the TGI in assay [2] turned out to be 35.3 µM; in [3] it was 32.8 µM; in assay [5] it was 31.8 µM; in [6], 32.6 µM; in [8] it was 36.1 µM; in [9] it was 30.7 µM. Also, in assay [10], the TGI came out at 29.4 µM.

With `Cc1cccc(C(C)(C)C)c1NC(=O)/C(Cc1nc2ccc([N+](=O)[O-])cc2[nH]c1=O)=N/NC(=O)C[N+](C)(C)C`, the TGI in assay [1], in assay [2], in assay [3], in assay [5], in assay [6] and in assay [7] was greater than 100 µM each time. Also, the TGI in assay [8], in assay [9] and in assay [10] was greater than 100 µM in each case.

Consider `CCOc1ccc2[nH]c3c(C)c4cc[n+](C)cc4c(C)c3c2c1`, for which the TGI in [1] is 29.9 µM and > 52.2 µM; in assay [3] it was 9.87 µM and 11.6 µM; in assay [4], 4.76 µM and 6.01 µM; in assay [5], greater than 100 µM; in assay [6], 15.6 µM and > 83.8 µM; in [8], 43.9 µM and > 100 µM. Besides, in [9], the TGI was 5.48 µM and 12.3 µM. In addition, the GI50 is 0.236 µM and 0.51 µM in assay [3]; 0.415 µM and 1.12 µM in assay [4].

For `O=c1[nH]c(=O)n(C2OC(COP(=O)(O)OP(=O)(O)O)C(O)C2O)cc1F` (centres undefined), the TGI is greater than 50 µM in assay [1]; greater than 50 µM in [3]; 29.6 µM in assay [4]; 20.4 µM in [5]; greater than 50 µM in assay [6]; greater than 41.4 µM in [8]. Also, the TGI in assay [9] was greater than 42.6 µM.

`CN1CCn2c(Br)ccc2C1=O`: the TGI in assay [1], in assay [3], in assay [4], in assay [5], in assay [6] and in assay [8] was greater than 100 µM throughout. For the same molecule, the TGI in [9] is greater than 100 µM.

In the case of `S=C(N/N=C\C=N/NC(=S)N1CCCCCC1)N1CCCCCC1`, the TGI in assay [2] was greater than 100 µM; in assay [3], greater than 100 µM; in assay [4], greater than 60.9 µM; in assay [5], greater than 100 µM; in assay [6], greater than 100 µM; in [7], greater than 100 µM. Also, the TGI was greater than 100 µM in assay [8], greater than 100 µM in assay [9] and greater than 86.2 µM in assay [10].

With `Cc1c2c3cc(O)ccc3nc-2n(C)c2ccccc12`, the TGI was 19.8 µM in assay [1]; 9.82 µM in assay [2]; 10.6 µM in assay [3]; 7.99 µM in [4]; 2.72 µM in assay [5]; 2.7 µM in assay [6]. Moreover, the figures for the TGI in [8], in assay [9] and in assay [10] were 3.48 µM, 3.21 µM and 14.3 µM, respectively.

In the case of `CN(C)CCOC(=O)COc1ccc(Cl)cc1`, the TGI in [2], in assay [3], in [4], in assay [5], in [6] and in assay [7] was greater than 100 µM in each case. Moreover, the TGI in assay [8], in assay [9] and in assay [10] was greater than 100 µM throughout.

`CC(C)CCC[C@@H](C)[C@H]1CC[C@H]2[C@@H]3CC=C4C[C@@H](OC(=O)c5cccc6c(=O)c7ccccc7[nH]c56)CC[C@]4(C)[C@H]3CC[C@]12C`: the TGI in assay [2], in [3], in assay [4], in [5], in assay [6] and in assay [7] was greater than 75 µM each time. In addition, the TGI in assay [8] and in [9] was greater than 75 µM each time.

Take `N#Cc1c(Nc2ccc(F)cc2)[n+]([O-])c2ccc(Cl)cc2[n+]1[O-]`: the TGI in assay [2] was 6.1 µM; in assay [3], greater than 100 µM; in assay [4], 42.2 µM; in assay [5], 42.1 µM; in assay [6] it was greater than 100 µM; in assay [7], 16.7 µM. In addition, the TGI in assay [8] is 35.9 µM; in assay [9], 17.2 µM; in assay [10], greater than 100 µM.

Take `Cn1c(=O)c2c(-c3ccccc3)onc2n(C)c1=O`: the TGI in assay [2], in [3], in assay [4], in assay [5], in assay [6] and in [7] was greater than 100 µM throughout. Further, the TGI in assay [8] and in assay [9] was greater than 100 µM throughout.

Turning to `CN=C(Nn1cnnc1)OC`, the TGI in assay [2], in assay [3], in assay [4], in assay [5], in assay [6] and in assay [7] was greater than 100 µM throughout. Also, the TGI in [8], in assay [9] and in [10] was greater than 100 µM each time.

With `COC(=O)c1ccc(-c2nc(C#N)c(N)o2)cc1`, the TGI is greater than 100 µM in [2]; greater than 100 µM in [3]; greater than 100 µM in assay [4]; greater than 100 µM in assay [5]; greater than 100 µM in [6]; 85.8 µM in [7]. Besides, the TGI in [8] and in assay [10] was greater than 100 µM in each case.
